Test results from patent US4233217A, “Substituted 1,2,4,5-tetrahydro-3H, 3 benzazepines” (priority 1979, dated 1980).
Counter-ions that a name gives are not always drawn.

Key:
[1] = I.P. symptomatology: highest tolerated dose and median lethal dose (Table IV); assay type: in vivo
[2] = in vivo; details: po
[3] = Mouse tail stimulation (MTS) (Table IV); assay type: in vivo; design: unit not given here; details: S.C.
[4] = test system: Morphine Analgesia; assay type: in vivo, rat; details: for narcotic antagonist potency relative to pentazocine: compared with pentazocine, Table II
[5] = Analgesic activity summarized over hot plate and writhing methods (Table I); details: for analgesic activity, ranking among tested compounds / separation between effective dose and toxic or lethal doses: Table I; for separation between effective dose and toxic or lethal doses: therapeutic index
[6] = Narcotic antagonism (Table IV); assay type: in vivo; details: I.P.
[7] = Local anesthetic sciatic block (Table IV); assay type: in vivo; details: 1%
[8] = Writhing analgesia (Table I); assay type: in vivo; details: oral; vs pentazocine

Work on Oc1ccc2c(c1)CCN(C[C@H]1C[C@@H]1c1ccccc1)CC2 (relative stereo) [Example 30, 7-Hydroxy-3(trans-2-phenylcyclopropylmethyl)-1,2,4,5-tetrahydro-3H,3-benzazepine] yielded an LD50 ([1]; in vivo, ip, I.P.) greater than 1000 mg/kg.

In the case of CC1Cc2ccccc2CCN1 (single isomer, unassigned; (+)) [Example 49, (+)-2-Methyl-1,2,4,5-tetrahydro-3H,3-benzazepine hydrochloride], the “LD50 (median lethal dose)” value ([1]; I.P., hydrochloride) is reported as 200 mg/kg.

In the case of CC1Cc2ccccc2CCN1 (single isomer, unassigned; (-)) [Example 48, (-)-2-Methyl-1,2,4,5-tetrahydro-3H,3-benzazepine], the “LD50 (median lethal dose)” value ([1]; I.P.) is reported as 60 mg/kg.

In the case of CC1Cc2ccccc2CCN1C (single isomer, unassigned; (-)) [Example 54, (-)-2,3-Dimethyl-1,2,4,5-tetrahydro-3H,3-benzazepine hydrochloride], the “LD50 (median lethal dose)” value ([1]; I.P., hydrochloride) is reported as 60 mg/kg.

In the case of COc1ccc2c3c1O[C@H]1[C@@H](O)C=C[C@H]4[C@@H](C2)N(C)CC[C@@]341 [Codeine], the LD50 [2] is reported as 540 mg/kg.

With COc1ccc2c(c1)CCNCC2 [Example 1, 7-Methoxy-1,2,4,5-tetrahydro-3H,3-benzazepine] the “MTS (mouse tail stimulation)” value [3] was greater than 3.

In the case of CC(C)=CCN1CCc2ccc(O)cc2CC1 [Example 4, 3-(3,3-Dimethylallyl)-7-hydroxy-1,2,4,5-tetrahydro-3H,3-benzazepine], the “narcotic antagonist potency relative to pentazocine” value [4] is reported as “more potent antagonist than pentazocine” and the “MTS (mouse tail stimulation)” value [3] is reported as greater than 56.

With CC(=O)Oc1ccc2c(c1)CCN(CC=C(C)C)CC2 [Example 5, 7-Acetoxy-3-(3,3-dimethylallyl)-1,2,4,5-tetrahydro-3H,3-benzazepine hydrochloride] the “MTS (mouse tail stimulation)” value [3] was greater than 30.

For C=CCN1CCc2ccc(OC)cc2CC1 [Example 14, 3-Allyl-7-methoxy-1,2,4,5-tetrahydro-3H,3-benzazepine], the “narcotic antagonist potency relative to pentazocine” value [4] was “about equipotent to pentazocine”.

For COc1ccc2c(c1)CCN(C)CC2 [Example 18, 7-Methoxy-3-methyl-1,2,4,5-tetrahydro-3H,3-benzazepine], the oral analgesic activity [5] was “active by the oral route”.

With COc1ccc2c(c1)CCN(CCc1ccccc1)CC2 [Example 24, 7-Methoxy-3-phenethyl-1,2,4,5-tetrahydro-3H,3-benzazepine] the “narcotic antagonist potency relative to pentazocine” value [4] was “about equipotent to pentazocine”, the “Narcotic Antagonism” value [6] was “Positive” and the “analgesic activity, ranking among tested compounds” value [5] was “most active compounds”. The “separation between effective dose and toxic or lethal doses” value [5] was “greatest separation between effective dose and toxic or lethal doses”, the “MTS (mouse tail stimulation)” value [3] was 5 and the MTD ([1]; in vivo, ip, I.P. symptomatology, read-out: HTD (highest tolerated dose)) was 30 mg/kg.

In the case of Oc1ccc2c(c1)CCN(CCc1ccccc1)CC2 [Example 25, 7-Hydroxy-3-phenethyl-1,2,4,5-tetrahydro-3H,3-benzazepine], the “HNSD (Highest Non Symptomatic Dose)” value (IP (Intraperitoneal)) is reported as 55 mg/kg.

For COc1ccc2c(c1)CCN(CC=Cc1ccccc1)CC2 [Example 28, 7-Methoxy-3-(3-phenylallyl)-1,2,4,5-tetrahydro-3H,3-benzazepine], the “narcotic antagonist potency relative to pentazocine” value [4] was “about equipotent to pentazocine”, the oral analgesic activity [5] was “active by the oral route” and the “MTS (mouse tail stimulation)” value [3] was 10.

In the case of COc1ccc2c(c1)CCN(CCN1CCN(c3ccccc3)CC1)CC2 [Example 31, 7-Methoxy-3-[2-(4-phenyl-1-piperazinyl)ethyl]-1,2,4,5-tetrahydro-3H,3-benzazepine], the “analgesic activity, ranking among tested compounds” value [5] is reported as “most active compounds”, the “separation between effective dose and toxic or lethal doses” value [5] is reported as “greatest separation between effective dose and toxic or lethal doses” and the “MTS (mouse tail stimulation)” value [3] is reported as 20.

In the case of CC(C)=CCN1CCc2ccc(O)cc2CC1C (stereo not shown) [Example 34, 3-(3,3-Dimethylallyl)-8-hydroxy-2-methyl-1,2,4,5-tetrahydro-3H,3-benzazepine hydrochloride], the “MTS (mouse tail stimulation)” value [3] is reported as greater than 40.

With COc1ccc2c(c1)CC(C)N(CCc1ccccc1)CC2 (stereo not shown) [Example 36, 8-Methoxy-2-methyl-3-phenethyl-1,2,4,5-tetrahydro-3H,3-benzazepine hydrochloride] the “Local Anesthetic Sciatic Block” value [7] was “Insoluable” and the “MTS (mouse tail stimulation)” value [3] was 10.

With c1ccc2c(c1)CCN(CC1CC1)CC2 [Example 37, 3-Cyclopropylmethyl-1,2,4,5-tetrahydro-3H,3-benzazepine hydrochloride] the “writhing activity relative to pentazocine” value [8] was “approximately twice as active as pentazocine”, the oral analgesic activity [5] was “active by the oral route” and the “MTS (mouse tail stimulation)” value [3] was 10.

For C=CCN1CCc2ccc(OC)cc2CC1C (stereo not shown) [Example 38, 3-Allyl-8-methoxy-2-methyl-1,2,4,5-tetrahydro-3H,3-benzazepine hydrochloride], the “MTS (mouse tail stimulation)” value [3] was greater than 10.

With CC1Cc2cc(O)ccc2CCN1CC1CC1 (stereo not shown) [Example 41, 3-Cyclopropylmethyl-8-hydroxy-2-methyl-1,2,4,5-tetrahydro-3H,3-benzezepine hydrochloride] the “MTS (mouse tail stimulation)” value [3] was greater than 30.

With C=CCN1CC[C@]23c4c5ccc(O)c4O[C@H]2[C@@H](O)C=C[C@H]3[C@H]1C5 [Nalorphine, reference compound] the “Antagonism of Morphine Analgesia, times more active than compounds listed above” value ([4]; rat, in vivo, sc) was 20-100.

Work on CC(C)=CCN1CCC2(C)c3cc(O)ccc3CC1C2C (stereo not shown) [Pentazocine, reference compound] yielded an LDSO (IP) greater than 500 mg/kg.
